# Entries after “also recorded” stand apart in the source; their conditions may differ. Where a SMILES comes first, the peptide text is derived from it. [ ]: non-standard residue; d: D form. pY = N[C@@H](Cc1ccc(OP(=O)(O)O)cc1)C(=O)O
# Assays:
# mTOR = mTOR status in HMEC after incubation with peptides (anti-mTor antibody Ser2448); type: cell-based, human
# Experimental: (§1) Human EC grown in EGM-2MV (80% confluence) were incubated with the peptides of the invention or vehicle for the indicated time, washed three times in cold PBS and directly lysed in 2 ml of ice-cold lysis buffer (10 mM Tris pH 7.5, 150 mM NaCl, 1 mM PMSF, 0.5 μg/ml leupeptin, 1 μg/ml pepstatin A, and 1 μg/ml aprotinin) by incubation for 30 min at 4° C. Cell lysate were spun at […] for 10 min, insoluble materials were discarded, and protein contents measured by Bradford assay of supernatants were adjusted. Cell lysate (1 ml) was precleared with 25 μl of protein G-plus agarose beads (Santa Cruz) for 30 min, and proteins were then immunoprecipitated by adding 2 μg of the indicated antibody and incubated for 1 hr. The immunocomplex was pulled down with protein G-plus agarose beads and the beads were washed three times with lysis buffer. The immunoprecipitates were separated by NuPAGE® 4-12% Bis-Tris gel electrophoresis under reducing conditions, transferred to PVDF membrane (Novex System, Invitrogen), and the membrane was blocked with 5% (w/v) non-fat milk in TBS containing 0.1% v/v Tween-20 for 1 hr.
# The status of mTOR in the HMEC following incubation with peptides GS-0 and GS-1 was investigated.
# [1] = target: T1, recruitment of the regulatory subunit (p85) of the enzyme PI-3K by IRS-1 (Homo sapiens, UniProt P27986); experiment: Recruitment of p85 of PI-3K by IRS-1 (IRS-1 immunoprecipitation, anti-p85 immunoblot) in HMEC; type: cell-based; details: final concentration of peptide 500 μg/ml
# T1 construct: endogenous in cells; host or cells: human microvascular endothelial cells (HMEC)
# Experimental: as §1
# As it is widely admitted that the tyrosine phosphorylation of IRS-1 leads to its association with the regulatory subunit (p85) of the enzyme PI-3K, and this event lead to important increases in the enzymatic activity of this later, we have investigated the influence of the tyrosine phosphorylated and non phosphorylated peptides onto the recruitment of the regulatory subunit (p85) of the enzyme PI-3K by IRS-1. For that, human microvascular endothelial cells (HMEC) were incubated with the tyrosine phosphorylated and non phosphorylated peptides (final concentration of peptide 500 μg/ml) followed by cells lysis and immuoprecipitation of the protein IRS-1. The immunoprecipitates were then resolved in SDS-PAGE, proteins were transferred to membranes, and the membranes were immunoblotted with an anti-p85 PI3K monoclonal antibody.
# [2] = test system: human microvascular endothelial cells (HMEC); experiment: In vitro angiogenesis assay (Matrigel tube formation); type: cell-based; details: 500 μg/ml final concentration of peptide, images at 18 h
# Experimental: Angiogenesis of human microvascular endothelial cells (HMEC) was induced in vitro using a Matrigel assay described by Al-Mahmood et al (2009, JPET, 2009; 58:933). This method is based on the differentiation of endothelial cells to form capillary structures on a Matrigel Matrix. Matrigel is prepared the Engelbreth-Holm-Swarm (EHS) mouse tumor, which represents a complex mixture of basement membrane proteins including type IV collagen, entactin, proteo-heparan sulfate and other growth factors.
# Briefly, 250 μl of Matrigel were transferred to each well of a 24-well culture plate and incubated at 37° C. for 30 min to allow for the matrix solution to solidify. HMEC grown in complete growth medium EGM-2MV were harvested by trypsin, suspended in the same growth medium and 500 μl containing 70 000 cells were added on top of the solidified Matrigel in each well and in the presence or absence of peptide. Cells were maintained in a humidified atmosphere air containing 5% CO2 at 37° C. for 18-24 hrs. Endothelial tube formation was observed and photographed under an inverted light microscope.
# The designed tyrosine phosphorylated and non phosphorylated peptides were tested for their influence onto the in vitro angiogenesis. The results of the in vitro angiogenesis assay were presented in FIG. 1, using HMEC and 500 μg/ml final concentration of each peptide.
# [3] = Solubility of peptides in 10% DMSO in PBS; type: physicochemical; details: 1 mg of peptide/ml of 10% DMSO in PBS
# Experimental: GS-1 as well as the control peptide GS-0 were solubilized in DMSO and the resulting solutions were diluted 10 times with phosphate buffer saline (PBS) to obtain a concentration of 1 mg of peptide/ml of 10% DMSO in PBS. At this concentration, all peptides were soluble in 10% DMSO.
# GS-2 as well as the control peptide GS-0 were solubilized in DMSO and the resulting solutions were diluted 10 times with phosphate buffer saline (PBS) to obtain a concentration of 1 mg of peptide/ml of 10% DMSO in PBS. At this concentration, all peptides were soluble in 10% DMSO.
# [4] = Body weight and toxicity of mice bearing NCI-H460 tumors (Example 3); type: in vivo
# Experimental: All experiments were reviewed by the Genopole's institutional animal care and use committee and were performed in accordance with institutional guidelines for animal care. Female BALB/c nu/nu mice (n=30) were used at 5-6 weeks of age. The animals were housed in laminar air-flow cabinets under pathogen-free conditions with a 12 h light/12 h dark schedule, and fed autoclaved standard chow and water ad libitum. […] Tumor cells (10^7 cells in 200 μl of HBSS) were injected subcutaneously into the right flanks of mice. […] At tumor volume about 150 mm^3, animals were randomized, and separated into five groups of five animals. Control mice (group 1) were intraperitoneally injected with vehicle (10% DMSO in buffer saline) every day. GS-0 was dissolved in vehicle and intraperitoneally injected (group 2) every day (12 injections). GS-2 was dissolved in vehicle and intraperitoneally injected (group 3) every day (12 injections). Tumor volume and body weight were measured every other day over the treatment period (12 days).
# NCI-H460 tumors = experiment: NCI-H460 tumor xenograft in nude mice, tumor volume (Example 3); type: in vivo
# Experimental: H460 cell line has cytology compatible with human Non-Small Cell Lung Cancer (NSCL). Cells were grown in MEM medium containing 10% FCS at 37° C., 5% CO2 humidified atmosphere. The absence of mycoplasms was confirmed by using the PCR Mycoplasma Detection kit (Takara). All experiments were reviewed by the Genopole's institutional animal care and use committee and were performed in accordance with institutional guidelines for animal care. Female BALB/c nu/nu mice (n=30) were used at 5-6 weeks of age. The animals were housed in laminar air-flow cabinets under pathogen-free conditions with a 12 h light/12 h dark schedule, and fed autoclaved standard chow and water ad libitum. The NCI-H460 human NSCL cell line was obtained from American Type Culture Collection (ATCC) were grown in RPMI medium 1640 supplemented with 1 μM sodium pyruvate. Tumor cells (10^7 cells in 200 μl of HBSS) were injected subcutaneously into the right flanks of mice. After engraftment, tumor volume was measured by Vernier callipers, and calculated as described in Balsam A et al. (Balsari A et al. (2004) Eur J Cancer 40: 1275-1281). At tumor volume about 150 mm^3, animals were randomized, and separated into five groups of five animals. Control mice (group 1) were intraperitoneally injected with vehicle (10% DMSO in buffer saline) every day. GS-0 was dissolved in vehicle and intraperitoneally injected (group 2) every day (12 injections). GS-2 was dissolved in vehicle and intraperitoneally injected (group 3) every day (12 injections). Tumor volume and body weight were measured every other day over the treatment period (12 days). GS-2 as well as the control peptide GS-0 were solubilized in DMSO and the resulting solutions were diluted 10 times with phosphate buffer saline (PBS) to obtain a concentration of 1 mg of peptide/ml of 10% DMSO in PBS. At this concentration, all peptides were soluble in 10% DMSO.
# T1 sequence (P27986 whole entry): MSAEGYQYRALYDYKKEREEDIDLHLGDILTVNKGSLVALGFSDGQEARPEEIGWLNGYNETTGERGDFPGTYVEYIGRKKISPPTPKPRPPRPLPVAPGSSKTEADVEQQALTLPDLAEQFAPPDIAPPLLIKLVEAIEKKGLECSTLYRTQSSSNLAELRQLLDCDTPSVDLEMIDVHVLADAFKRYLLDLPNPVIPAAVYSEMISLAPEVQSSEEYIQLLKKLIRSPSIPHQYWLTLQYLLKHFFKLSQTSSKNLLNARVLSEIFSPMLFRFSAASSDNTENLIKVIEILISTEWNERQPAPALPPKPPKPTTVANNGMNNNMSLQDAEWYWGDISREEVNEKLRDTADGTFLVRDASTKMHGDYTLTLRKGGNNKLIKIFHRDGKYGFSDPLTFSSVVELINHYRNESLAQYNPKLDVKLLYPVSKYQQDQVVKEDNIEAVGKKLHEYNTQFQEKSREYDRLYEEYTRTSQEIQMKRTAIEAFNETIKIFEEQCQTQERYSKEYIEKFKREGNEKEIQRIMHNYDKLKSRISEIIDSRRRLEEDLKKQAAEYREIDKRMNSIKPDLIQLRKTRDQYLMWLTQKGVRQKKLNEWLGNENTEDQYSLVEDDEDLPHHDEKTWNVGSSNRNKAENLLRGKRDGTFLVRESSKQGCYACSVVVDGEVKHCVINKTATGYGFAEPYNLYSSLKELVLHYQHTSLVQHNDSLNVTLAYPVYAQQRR
compound,measurement,setting,value
"CSCC[C@H](NC(=O)[C@H](CC(N)=O)NC(=O)[C@H](CCSC)NC(=O)[C@H](Cc1ccc(OP(=O)(O)O)cc1)NC(=O)[C@H](CCC(=O)O)NC(C)=O)C(=O)N[C@@H](CC(=O)O)C(N)=O [GS-2, EpYMNMD] (Ac-E[pY]MNMD-NH2)",amounts of mTOR in HMEC relative to vehicle,mTOR,much less amounts of mTOR
same,influence onto the recruitment of the regulatory subunit (p85) of PI3K by IRS-1,[1],moderate inhibitory effects
same,in vitro angiogenesis-inhibitory activity,[2],have in vitro angiogenesis-inhibitory activities
same,solubility in 10% DMSO,[3],soluble
same,toxicity and body weight loss during treatment,"[4]; 8 mg/kg intraperitoneally every day, 12 injections",No toxicity and no body weight loss
same,Mean body weight D1,"[4]; Table 3, 8 mg/kg i.p. daily, day 1, in g",22.59
same,Mean body weight D3,"[4]; Table 3, 8 mg/kg i.p. daily, day 3, in g",22.32
same,Mean body weight D5,"[4]; Table 3, 8 mg/kg i.p. daily, day 5, in g",22.78
same,Mean body weight D7,"[4]; Table 3, 8 mg/kg i.p. daily, day 7, in g",23.10
same,Mean body weight D9,"[4]; Table 3, 8 mg/kg i.p. daily, day 9, in g",23.00
same,Mean body weight D11,"[4]; Table 3, 8 mg/kg i.p. daily, day 11, in g",23.51
same,Mean body weight D13,"[4]; Table 3, 8 mg/kg i.p. daily, day 13, in g",23.05
same,influence on the in vivo growth of the tumor NCI-H460 (in words),NCI-H460 tumors; 8 mg/kg i.p. daily for 12 days,highly significant and potent influence; also recorded: statistically significant and potent anti-tumoral activity
same,mean tumor volume at the end of treatment,"NCI-H460 tumors; 8 mg/kg i.p. daily for 12 days, n=5",297.28 ± 142.67 mm^3
same,Mean tumor volume D1,"NCI-H460 tumors; Table 4, 8 mg/kg i.p. daily, day 1",124 mm³
same,Mean tumor volume D3,"NCI-H460 tumors; Table 4, 8 mg/kg i.p. daily, day 3",129 mm³
same,Mean tumor volume D5,"NCI-H460 tumors; Table 4, 8 mg/kg i.p. daily, day 5",163 mm³
same,Mean tumor volume D7,"NCI-H460 tumors; Table 4, 8 mg/kg i.p. daily, day 7",174 mm³
same,Mean tumor volume D9,"NCI-H460 tumors; Table 4, 8 mg/kg i.p. daily, day 9",254 mm³
same,Mean tumor volume D11,"NCI-H460 tumors; Table 4, 8 mg/kg i.p. daily, day 11",297 mm³
same,Mean tumor volume D13,"NCI-H460 tumors; Table 4, 8 mg/kg i.p. daily, day 13",297 mm³

# From patent US9206236B2, “Peptides for treating cancer” (Gene Signal International SA, priority 2010, dated 2015)
